According to patent publication US12540131B2 (Merck Sharp & Dohme LLC, priority 2019, dated 2026):

molecular target: GST tagged truncated human mutant G2019S LRRK2 (Homo sapiens (Human), UniProt Q5S007, G2019S); assay: LRRK2 Km ATP LanthaScreen Assay; format: biochemical; details: G2019S LRRK2, 134 μM ATP (Km ATP), mean values
Method: General Experimental Information: • Unless otherwise noted, all reactions are magnetically stirred. Unless otherwise noted, when diethyl ether is used in the experiments described below, it is Fisher ACS certified material and is stabilized with BHT. Unless otherwise noted, “concentrated” and/or “solvent removed under reduced pressure” means evaporating the solvent from a solution or mixture using a rotary evaporator or vacuum pump. Unless otherwise noted, flash chromatography is carried out on a Teledyne Isco (Lincoln, NE), Analogix (Burlington, WI), or Biotage (Stockholm, SWE) automated chromatography system using a commercially available cartridge as the column. Columns may be purchased from Teledyne Isco, Analogix, Biotage, Varian (Palo Alto, CA), or Supelco (Bellefonte, PA) and are usually filled with silica gel as the stationary phase. Reverse phase prep-HPLC conditions, where used, can be found at the end of each experimental section. Aqueous solutions were concentrated on a Genevac (Ipswich, ENG) or by freeze-drying/lyophilization. Unless otherwise noted, all LRRK2 pIC50 data presented in tables refers to the LRRK2 G2019S Km ATP LanthaScreen™ assay (Life Technologies Corp., Carlsbad, CA) that is described in the Biological Assay section.
The pIC50 values reported herein were measured as follows.
Biological Assay: LRRK2 Km ATP LanthaScreen™ Assay
Compound potency against LRRK2 kinase activity was determined using LanthaScreen™ technology from Life Technologies Corporation (Carlsbad, CA) using a GST20 tagged truncated human mutant G2019S LRRK2 in the presence of the fluorescein-labeled peptide substrate LRRKtide® (LRRK2 phosphorylated ezrin/radixin/moesin (ERM)), also from Life Technologies. The data presented for the Km ATP LanthaScreen™ Assay represents mean IC50 values based on several test results and may have reasonable deviations depending on the specific conditions and reagents used. Km is the Michaelis constant of an enzyme and is defined as the concentration of native substrate (ATP for a kinase) which permits the enzyme to achieve half Vmax (Vmax=rate of reaction when the enzyme is saturated with substrate). IC50 (half-maximal inhibitory concentration) represents the concentration of inhibitor required to inhibit LRRK2 kinase activity by 50%. Assays were performed in the presence of 134 μM ATP (Km ATP). Upon completion, the assay was stopped, and phosphorylated substrate detected with a terbium (Tb)-labeled anti-pERM antibody (cat. no. PV4898). The compound dose response was prepared by diluting a 10 mM stock of compound to a maximum concentration of 9.99 μM in 100% DMSO, followed by custom fold serial dilution in DMSO nine times. 20 nL of each dilution was spotted via a Labcyte Echo onto a 384-well black-sided plate (Corning 3575) followed by 15 μl of a 1.25 nM enzyme solution in 1× assay buffer (50 mM Tris pH 8.5, 10 mM MgCl2, 0.01% Brij-35, 1 mM EGTA, 2 mM dithiothreitol, 0.05 mM sodium orthovanadate). Following a 15-minute incubation period at RT, the kinase reaction was started with the addition of 5 μl of 400 nM fluorescein-labeled LRRKtide® (LRRK2 phosphorylated ezrin/radixin/moesin (ERM)) peptide substrate and 134 μM ATP solution in 1× assay buffer. The reaction was allowed to progress at ambient temperature for 90 minutes. The reaction was then stopped by the addition of 20 μl of TR-FRET Dilution Buffer (Life Technologies, Carlsbad, CA) containing 2 nM Tb-labeled anti-phospho LRRKtide® (LRRK2 phosphorylated ezrin/radixin/moesin (ERM)) antibody and 10 mM EDTA (Life Technologies, Carlsbad, CA). After an incubation period of 1 h at RT, the plate was read on an EnVision® multimode plate reader (Perkin Elmer, Waltham, MA) with an excitation wavelength of 337 nm (Laser) and a reading emission at both 520 and 495 nm. Compound IC50 values were interpolated from nonlinear regression best-fits of the log of the final compound concentration, plotted as a function of the 520/495-nm emission ratio using activity base “Abase”). […]

Chain of GST tagged truncated human mutant G2019S LRRK2 (Q5S007 970-2527 G2019S): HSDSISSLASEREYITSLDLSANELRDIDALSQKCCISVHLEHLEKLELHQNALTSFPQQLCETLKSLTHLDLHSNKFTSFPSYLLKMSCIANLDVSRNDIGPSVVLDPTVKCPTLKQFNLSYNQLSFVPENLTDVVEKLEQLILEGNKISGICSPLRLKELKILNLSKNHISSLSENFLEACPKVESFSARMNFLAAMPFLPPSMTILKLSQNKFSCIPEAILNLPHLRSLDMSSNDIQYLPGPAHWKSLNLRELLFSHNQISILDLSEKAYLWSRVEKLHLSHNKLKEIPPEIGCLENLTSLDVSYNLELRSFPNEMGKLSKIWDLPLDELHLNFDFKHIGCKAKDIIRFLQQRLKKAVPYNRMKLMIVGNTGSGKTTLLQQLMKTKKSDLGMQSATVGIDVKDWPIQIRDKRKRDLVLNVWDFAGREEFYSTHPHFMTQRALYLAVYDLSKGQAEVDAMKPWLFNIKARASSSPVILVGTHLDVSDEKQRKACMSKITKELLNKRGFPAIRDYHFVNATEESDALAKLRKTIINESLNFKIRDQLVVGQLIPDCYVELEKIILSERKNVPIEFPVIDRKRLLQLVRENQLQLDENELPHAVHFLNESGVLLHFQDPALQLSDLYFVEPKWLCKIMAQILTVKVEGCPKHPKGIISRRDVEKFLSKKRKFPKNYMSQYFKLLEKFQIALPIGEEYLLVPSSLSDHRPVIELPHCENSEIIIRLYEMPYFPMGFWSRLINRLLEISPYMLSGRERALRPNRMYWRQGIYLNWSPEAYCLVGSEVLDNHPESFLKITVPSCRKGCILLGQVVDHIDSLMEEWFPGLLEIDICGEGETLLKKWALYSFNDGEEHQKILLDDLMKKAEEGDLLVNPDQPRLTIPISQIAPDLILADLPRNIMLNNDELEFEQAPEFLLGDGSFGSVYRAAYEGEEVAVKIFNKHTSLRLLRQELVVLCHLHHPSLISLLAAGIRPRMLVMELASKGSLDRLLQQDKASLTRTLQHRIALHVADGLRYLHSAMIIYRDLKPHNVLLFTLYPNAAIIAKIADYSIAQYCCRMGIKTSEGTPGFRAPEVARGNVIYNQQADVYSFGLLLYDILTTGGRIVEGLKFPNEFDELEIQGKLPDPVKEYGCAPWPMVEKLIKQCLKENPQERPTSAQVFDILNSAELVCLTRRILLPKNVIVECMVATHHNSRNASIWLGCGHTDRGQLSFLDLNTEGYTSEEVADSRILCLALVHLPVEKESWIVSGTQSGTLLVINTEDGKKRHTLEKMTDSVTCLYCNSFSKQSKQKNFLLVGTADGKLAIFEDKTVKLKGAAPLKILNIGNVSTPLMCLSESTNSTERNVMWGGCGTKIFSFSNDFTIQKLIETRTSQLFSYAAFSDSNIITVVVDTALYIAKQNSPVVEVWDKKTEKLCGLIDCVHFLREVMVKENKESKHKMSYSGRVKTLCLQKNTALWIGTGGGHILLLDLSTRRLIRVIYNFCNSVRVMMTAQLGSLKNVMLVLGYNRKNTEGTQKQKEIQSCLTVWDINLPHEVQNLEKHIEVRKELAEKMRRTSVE

Row | SMILES | LRRK2 pIC50
1 | O=S1(=O)CC(N2CC[C@H](c3cc4nc(Nc5cnn(C6CC6)c5Cl)ncc4cc3Cl)[C@@H](F)C2)C1 (single isomer, unassigned) | 9.02
2 | Cc1c(Nc2ncc3cc(Cl)c(C4CCN([C@@H]5COC[C@@H]5O)CC4)cc3n2)cnn1C1CC1 (single isomer, unassigned) [Ex-4.131, (3S,4S) or (3R,4R) 4-(4-{6-chloro-2-[(1-cyclopropyl-5-methyl-1H-pyrazol-4-yl)amino]quinazolin-7-yl}piperidin-1-yl)oxolan-3-ol] | 8.62
3 | Cn1ncc(Nc2ncc3cc(Cl)c([C@@H]4CCN([C@@H]5COC[C@@H]5O)C[C@H]4F)cc3n2)c1C1CC1 (single isomer, unassigned) [Ex-4.239, (3S,4S)(3S,4S) or (3S,4S)(3R,4R) or (3R,4R)(3S,4S) or (3R,4R)(3R,4R) 4-(4-{6-chloro-2-[(5-cyclopropyl-1-methyl-1H-pyrazol-4-yl)amino]quinazolin-7-yl}-3-fluoropiperidin-1-yl)oxolan-3-ol] | >9.20
4 | Cc1c(Nc2ncc3cc(Cl)c([C@H]4CCN(C5COC5)C[C@@H]4F)cc3n2)cnn1C1CC1(F)F (single isomer, unassigned) [Ex-4.175, (R)(3S,4S) or (S)(3S,4S) or (R)(3R,4R) or (S)(3R,4R) 6-chloro-N-[1-(2,2-difluorocyclopropyl)-5-methyl-1H-pyrazol-4-yl]-7-[(3R,4R)-3-fluoro-1-(oxetan-3-yl)piperidin-4-yl]quinazolin-2-amine] | 9.10
5 | FC(F)(F)Cn1ncc(Nc2ncc3cc(Cl)c(C4CCN(C5COC5)CC4)cc3n2)c1Cl [Ex-8.1, 6-chloro-N-(5-chloro-1-(2,2,2-trifluoroethyl)-1H-pyrazol-4-yl)-7-(1-(oxetan-3-yl)piperidin-4-yl)quinazolin-2-amine] | >9.20
6 | O[C@H]1COC[C@H]1N1CCC(c2cc3nc(Nc4cnn(C5CC5)c4Cl)ncc3cc2Cl)CC1 (single isomer, unassigned) [Ex-4.104, (3S,4S) or (3R,4R) 4-(4-(6-chloro-2-((5-chloro-1-cyclopropyl-1H-pyrazol-4-yl)amino)quinazolin-7-yl)piperidin-1-yl)tetrahydrofuran-3-ol] | >9.20
7 | Clc1cc2cnc(Nc3cnn(C4CC4)c3Cl)nc2cc1C1CC2(C1)CN(C1COC1)C2 [Ex-4.119, 6-chloro-N-(5-chloro-1-cyclopropyl-1H-pyrazol-4-yl)-7-(2-(oxetan-3-yl)-2-azaspiro[3.3]heptan-6-yl)quinazolin-2-amine] | 7.96
8 | Cn1ncc(Nc2ncc3cc(Cl)c([C@H]4CCN([C@@H]5COC[C@@H]5O)C[C@@H]4F)cc3n2)c1Cl (single isomer, unassigned) [Ex-4.189, (3S,4S)(3S,4S) or (3S,4S)(3R,4R) or (3R,4R)(3S,4S) or (3R,4R)(3R,4R) 4-(4-{6-chloro-2-[(5-chloro-1-methyl-1H-pyrazol-4-yl)amino]quinazolin-7-yl}-3-fluoropiperidin-1-yl)oxolan-3-ol] | >9.20
9 | CC1OCC1N1CC[C@H](c2cc3nc(Nc4cnn(CC(C)(C)O)c4Cl)ncc3cc2Cl)[C@@H](F)C1 (single isomer, unassigned) [Ex-4.73, (3S,4S)(2R,3R) or (3S,4S)(2S,3S) or (3R,4R)(2R,3R) or (3R,4R)(2S,3S) or (3R,4R)(2S,3R) or (3R,4R)(2R,3S) or (3S,4S)(2S,3R) or (3S,4S)(2R,3S) 1-[5-chloro-4-({6-chloro-7-[3-fluoro-1-(2-methyloxetan-3-yl)piperidin-4-yl]quinazolin-2-yl}amino)-1H-pyrazol-1-yl]-2-methylpropan-2-ol] | 9.13
10 | Cc1cc2cnc(Nc3cnn(C45CC(C4)C5)c3C)nc2cc1[C@@H]1CCN([C@@H]2COC[C@@H]2O)C[C@H]1F (single isomer, unassigned) [Ex-4.165, (3S,4S)(3S,4S) or (3S,4S)(3R,4R) or (3R,4R)(3S,4S) or (3R,4R)(3R,4R) 4-[4-(2-{[1-(bicyclo[1.1.1]pentan-1-yl)-5-methyl-1H-pyrazol-4-yl]amino}-6-methylquinazolin-7-yl)-3-fluoropiperidin-1-yl]oxolan-3-ol] | 8.67
11 | Cc1cc(Nc2ncc3cc(Cl)c(C4CCN(C5COC5)CC4)cc3n2)sn1 [Ex-4.45, 6-chloro-N-(3-methyl-1,2-thiazol-5-yl)-7-[1-(oxetan-3-yl)piperidin-4-yl]quinazolin-2-amine] | >9.20
12 | FC(F)n1ncc(Nc2ncc3cc(Cl)c(C4CCN(C5COC5)CC4)cc3n2)c1Cl [Ex-8.2, 6-chloro-N-[5-chloro-1-(difluoromethyl)-1H-pyrazol-4-yl]-7-[1-(oxetan-3-yl)piperidin-4-yl]quinazolin-2-amine] | 8.83
13 | Cc1nsc(Nc2ncc3cc(Cl)c([C@H]4CCN(C5CCOC5)C[C@@H]4F)cc3n2)c1Cl (single isomer, unassigned) [Ex-8.23, (3S,4S)(S) or (3S,4S)(R) or (3R,4R)(S) or (3R,4R)(R) 6-chloro-N-(4-chloro-3-methyl-1,2-thiazol-5-yl)-7-[3-fluoro-1-(oxolan-3-yl)piperidin-4-yl]quinazolin-2-amine] | 8.12
14 | N#CC1(CN2CCC(c3cc4nc(Nc5cnn(C6CC6)c5Cl)ncc4cc3Cl)CC2)CC1 [Ex-4.78, 1-[(4-{6-chloro-2-[(5-chloro-1-cyclopropyl-1H-pyrazol-4-yl)amino]quinazolin-7-yl}piperidin-1-yl)methyl]cyclopropane-1-carbonitrile] | 7.95
15 | [2H]C([2H])([2H])n1ncc(Nc2ncc3cc(Cl)c(C4CCN([C@]5(C)COC[C@@H]5O)CC4)cc3n2)c1C (single isomer, unassigned) [Ex-1.26, (3S,4S) or (3R,4R)-4-(4-(6-chloro-2-((5-methyl-1-(methyl-d3)-1H-pyrazol-4-yl)amino)quinazolin-7-yl)piperidin-1-yl)-4-methyltetrahydrofuran-3-ol] | >9.20
16 | C[C@@]1(N2CC[C@@H](c3cc4nc(Nc5cnn(C6CC6)c5Cl)ncc4cc3Cl)[C@H](F)C2)COC[C@@H]1O (single isomer, unassigned) [Ex-4.249, (3S,4S)(3S,4S) or (3S,4S)(3R,4R) or (3R,4R)(3S,4S) or (3R,4R)(3R,4R) 4-(4-{6-chloro-2-[(5-chloro-1-cyclopropyl-1H-pyrazol-4-yl)amino]quinazolin-7-yl}-3-fluoropiperidin-1-yl)-4-methyloxolan-3-ol] | >9.20

same assay, conditions: G2019S LRRK2, 134 μM ATP (Km ATP), mean values; read-out: LRRK2 pIC50 (converted)

Row | SMILES | IC50 [nM]
17 | Cc1c(Nc2ncc3cc(Cl)c(C4CCN(C5CCCC5(F)F)CC4)cc3n2)cnn1C1CC1 (single isomer, unassigned) [Ex-1.22, (S) or (R) 6-chloro-N-(1-cyclopropyl-5-methyl-1H-pyrazol-4-yl)-7-[1-(2,2-difluorocyclopentyl)piperidin-4-yl]quinazolin-2-amine] | 7.94
18 | C[C@]1(N2CCC(c3cc4nc(Nc5cnn(C67CC(C6)C7)c5)ncc4cc3Cl)CC2)COC[C@H]1O (single isomer, unassigned) [Ex-2.35, (3S,4S) or (3R,4R) 4-[4-(2-{[1-(bicyclo[1.1.1]pentan-1-yl)-1H-pyrazol-4-yl]amino}-6-chloroquinazolin-7-yl)piperidin-1-yl]-4-methyloxolan-3-ol] | 3.89
19 | CCn1ncc(Nc2ncc3cc(Cl)c(C4CC45CC5)cc3n2)c1C (single isomer, unassigned) [Ex-1.2, (S) or (R) 6-chloro-N-(1-ethyl-5-methyl-1H-pyrazol-4-yl)-7-(spiro[2.2]pentan-1-yl)quinazolin-2-amine] | 186
